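96-well plates; 48 h exposure; 5 concentrations. Endpoints by linear interpolation between flanking doses. Not reached: highest tested concentration assigned. GI50 marks 50% less growth.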 Active and inactive are the calls of the source. No stated cut-off is given here; in the data, active = GI50 up to about 1.1 µM and inactive = higher.
Legend:
Experiment in all cases: DTP human tumour cell line panel, 48 h
SF-268 = system: SF-268
MOLT-4 = system: MOLT-4
OVCAR-5 = system: OVCAR-5
OVCAR-8 = system: OVCAR-8
IGROV-1 = system: IGROV-1
ACHN = system: ACHN
DMS-114 = system: DMS-114
RXF 631 = system: RXF 631
KM-20L2 = system: KM-20L2
KM12 = system: KM12
TK-10 = system: TK-10
DLD-1 = system: DLD-1
HCT-15 = system: HCT-15
HCC 2998 = system: HCC 2998
SNB-19 = system: SNB-19
HL-60 = system: HL-60
NCI-H226 = system: NCI-H226
A549 = system: A549
NCI-H460 = system: NCI-H460
EKVX = system: EKVX
A498 = system: A498
SF-539 = system: SF-539
K562 = system: K562
SF-295 = system: SF-295
OVCAR-3 = system: OVCAR-3
HOP-62 = system: HOP-62
M19-MEL = system: M19-MEL
COLO 205 = system: COLO 205
NCI-H23 = system: NCI-H23
LOX IMVI = system: LOX IMVI
SK-MEL-28 = system: SK-MEL-28
RPMI-8226 = system: RPMI-8226
NCI-H522 = system: NCI-H522
HT-29 = system: HT-29
SN12C = system: SN12C
SK-OV-3 = system: SK-OV-3
UACC-62 = system: UACC-62
OVCAR-4 = system: OVCAR-4
CAKI-1 = system: CAKI-1
HOP-92 = system: HOP-92
HOP-18 = system: HOP-18
SR = system: SR
SNB-75 = system: SNB-75
SK-MEL-5 = system: SK-MEL-5
XF498 = system: XF498
HCT-116 = system: HCT-116
M14 = system: M14
SNB-78 = system: SNB-78
Malme-3M = system: Malme-3M
UACC-257 = system: UACC-257
U-251 = system: U-251
CCRF-CEM = system: CCRF-CEM
RXF 393 = system: RXF 393
SK-MEL-2 = system: SK-MEL-2
LXFL 529 = system: LXFL 529
DMS-273 = system: DMS-273
786-0 = system: 786-0
UO-31 = system: UO-31

## CCCCN(CCCC)CC(C(=O)Nc1ccc([N+](=O)[O-])cc1[N+](=O)[O-])/C(C)=N\NC(=O)C[N+](C)(C)C (stereo not drawn)
SF-268
  GI50: > 100 µM (inactive)
MOLT-4
  GI50: > 100 µM (inactive)
OVCAR-5
  GI50: > 100 µM (inactive)
OVCAR-8
  GI50: > 100 µM (inactive)
IGROV-1
  GI50: > 100 µM (inactive)
ACHN
  GI50: > 100 µM (inactive)
DMS-114
  GI50: 31.6 µM (inactive)
RXF 631
  GI50: 69.2 µM (inactive)
KM-20L2
  GI50: > 100 µM (inactive)
KM12
  GI50: > 100 µM (inactive)
TK-10
  GI50: > 100 µM (inactive)
DLD-1
  GI50: 69.3 µM (inactive)
HCT-15
  GI50: 46.8 µM
HCC 2998
  GI50: > 100 µM (inactive)
SNB-19
  GI50: > 100 µM (inactive)
HL-60
  GI50: > 100 µM (inactive)
NCI-H226
  GI50: > 100 µM (inactive)
A549
  GI50: > 100 µM (inactive)
NCI-H460
  GI50: 55.7 µM (inactive)
EKVX
  GI50: 30.3 µM (inactive)
A498
  GI50: 52.7 µM (inactive)
SF-539
  GI50: > 100 µM (inactive)
K562
  GI50: 28.8 µM (inactive)
SF-295
  GI50: > 100 µM (inactive)
OVCAR-3
  GI50: > 100 µM (inactive)
HOP-62
  GI50: > 100 µM (inactive)
M19-MEL
  GI50: > 100 µM (inactive)
COLO 205
  GI50: 35.7 µM (inactive)
NCI-H23
  GI50: > 100 µM (inactive)
LOX IMVI
  GI50: 33.3 µM (inactive)
SK-MEL-28
  GI50: > 100 µM (inactive)
RPMI-8226
  GI50: 27.7 µM (inactive)
NCI-H522
  GI50: 41.9 µM (inactive)
HT-29
  GI50: 75.9 µM (inactive)
SN12C
  GI50: > 100 µM (inactive)
SK-OV-3
  GI50: > 100 µM (inactive)
UACC-62
  GI50: > 100 µM (inactive)
OVCAR-4
  GI50: > 100 µM (inactive)
CAKI-1
  GI50: 42.7 µM (inactive)
HOP-92
  GI50: 33 µM (inactive)
HOP-18
  GI50: 78.9 µM (inactive)
SR
  GI50: 25.1 µM (inactive)
SNB-75
  GI50: 29 µM (inactive)
SK-MEL-5
  GI50: > 100 µM (inactive)
XF498
  GI50: 39.3 µM (inactive)
HCT-116
  GI50: 69.5 µM (inactive)
M14
  GI50: > 100 µM (inactive)
SNB-78
  GI50: 97.7 µM (inactive)
Malme-3M
  GI50: > 100 µM (inactive)
UACC-257
  GI50: > 100 µM (inactive)
U-251
  GI50: > 100 µM (inactive)
CCRF-CEM
  GI50: 41.8 µM (inactive)
RXF 393
  GI50: 92.7 µM (inactive)
SK-MEL-2
  GI50: > 100 µM (inactive)
LXFL 529
  GI50: 74 µM (inactive)
DMS-273
  GI50: 15.9 µM (inactive)
786-0
  GI50: > 100 µM (inactive)
UO-31
  GI50: 66.5 µM (inactive)

— ChEMBL document CHEMBL1201862, “PubChem BioAssay data set” (2004)
